Test results published in patent US12383498B2, “Amlodipine formulations” (Azurity Pharmaceuticals, Inc., priority 2018, dated 2025).

Key:
[1] = Amlodipine content in supernatant of amlodipine salt batches (0.45 micron filtration, HPLC); assay type: physicochemical; conditions: batches prepared by mixing; ~10-fold molar salt forming agent; polysorbate 80 in water
Protocol: Amlodipine salts were prepared according to the formulas in Table 1 and Table 2. The formulations in Table 1 were prepared by adding purified water to a glass container containing a magnetic stir-bar and mixing with an external magnetic stir-plate. The polysorbate 80 was added and allowed to dissolve with mixing for a minimum of 10 minutes. Amlodipine besylate was then added and dispersed in the solution with mixing for a minimum of 10 minutes. The salt forming agent was then added to the suspension and the resulting suspension was mixed for an additional 30 minutes. The amount of the added salt forming agent was approximately 10-fold the amount of amlodipine on a mole basis. A control formulation was prepared to provide a solubility value for amlodipine besylate.
The formulations in Table 2 were prepared by adding purified water to a glass container positioned in an ultrasonic bath. Mixing was initiated with an overhead mixer and impeller. The polysorbate 80 was added and allowed to dissolve with mixing for a minimum of 10 minutes. Amlodipine besylate was then added and dispersed in the solution with mixing for a minimum of 10 minutes. […]
An aliquot of each suspension was filtered through a 0.45 micron nylon filter and the supernatant analyzed by an HPLC method for amlodipine content. […] Detection was by UV absorbance at 237 nm.

[2] = Soluble amlodipine in isolated solids (purified water, pH 5.3, tumbled 66 hours, HPLC); assay type: physicochemical; conditions: pH 5.3, aqueous buffer, thermodynamic from solid
Protocol: Batches 1A-1F had different amlodipine content in the supernatants than the amlodipine besylate control indicating formation of new salt forms. […] Aliquots of each solid were weighed into 15 mL polypropylene centrifuge tubes in duplicate except for batch 1A which was a single determination. Purified water was added to each tube and the pH of the resulting suspension adjusted to 5.3 with anhydrous citric acid or anhydrous sodium citrate powder as needed. A control was also prepared in duplicate containing only purified water and amlodipine besylate at pH 5.3. The tubes were capped, covered in foil to block light, and allowed to tumble end-over-end at ambient temperature for 66 hours. The suspensions were then filtered through 0.45 micron nylon filters and the resulting filtrates analyzed by HPLC for amlodipine content.

## CCOC(=O)C1=C(COCCN)NC(C)=C(C(=O)OC)C1c1ccccc1Cl (stereo not drawn) [Control, Amlodipine besylate]
[1]
  Amlodipine content in supernatant: 4.80 mg/mL
[2]; Tube 1, pH adjusted to 5.3, ambient temperature
  solubility at 66 h: 1080 µg/mL
[2]; Tube 2, pH adjusted to 5.3, ambient temperature
  solubility at 66 h: 1080 µg/mL
